According to US20250305004A1, “ENHANCING GENE TARGETING EFFICIENCY IN HUMAN CELLS WITH DNA-PK INHIBITOR TREATMENT” (The Board of Trustees of the Leland Stanford Junior …, priority 2022, published 2025):
“Also recorded” adds a separate entry of the source.

Legend:
CFTR locus in HBECs = experiment: RNP/AAV6 gene targeting at CFTR locus in HBECs; type: cell-based, human; conditions: 0.5 μM
Method: (§1) ICE analysis for quantification of gene editing.
Cell culture and genome editing of HBECs. Human bronchial epithelial cells (HBECs) were obtained from Lonza Inc., the Primary Airway Cell Biobank at McGill University, the Cystic Fibrosis Foundation Cell Bank or the University of North Carolina. […] Cells were cultured at 37° C. in 5% 02 and 5% CO2.

STING1 locus in HSPCs = experiment: RNP/AAV6 gene targeting at STING1 locus in HSPCs; type: cell-based, human; conditions: seemingly inactive gRNA (sg5)
Source text: as §1
CD34+ HSPC culture and genome editing.

CCR5 locus in HSPCs = experiment: RNP/AAV6 gene targeting at CCR5 locus in CD34+ HSPCs; type: cell-based, human; conditions: two stop codons; sg1 and sg4
Method: ddPCR analysis of targeted integration. Gene targeting efficiency for the knock-in of multi-kb sequences was measured through digital droplet PCR (ddPCR) analysis. For this, genomic DNA was extracted from cells using the QuickExtract™ DNA Extraction Solution (QE) (Lucigen, Cat: QE09050). Pellets of 100,000 to 200,000 cells were resuspended in 40 to 50 μl of QE solution. This cell suspension was incubated at 65° C. for 6 mins and then 100° C. for 10 mins. The quick extracted genomic DNA was digested with either BamHI-HF or HindIII-HF (NEB) enzymes at 37° C. for 1 to 2 hours. […] 40 μl of the generated droplet sample was used for the PCR with the following cycle: 95° C. for 10 mins, 50 cycles of 94° C. for 30 secs, 60° C. for 30 secs and 72° C. for 2 mins and 98° C. for 10 mins. After PCR, the droplets were analyzed using the QX200 Droplet Digital PCR reader (Biorad) and Quantasoft software was used to determine the number of copies of the target and reference DNA in the droplets. The allelic gene targeting efficiency was calculated as the percentage of target DNA copies relative to that of the reference. […]
(§2) ICE analysis for quantification of gene editing. […] Following PCR, the amplicons were detected on agarose gel and purified from the gel using GeneJet Gel Extraction Kit (Thermo Fisher Scientific, cat: K0692). […]

human primary cells = experiment: Gene targeting across different genomic loci and primary cell types (summary statements); type: cell-based; conditions: in some examples
Source text: Nuclease-based genome editing can result in either site-specific insertions/deletions (INDELs) or targeted integrations depending on which pathway of natural DNA double-strand break repair is harnessed: non-homologous end-joining (NHEJ), microhomology mediated end-joining (MMEJ) or homology-directed repair (HDR).

STING1 locus in PSCs = experiment: RNP/AAV6 gene targeting at STING1 locus (V155M) in PSCs; type: cell-based, human
Method: In comparison, the untreated cells had around 30% INDELs (FIG. 4D-E).
For this, we tested gene targeting at the STING1 locus to introduce a point mutation (V155M) associated with an autoinflammatory disease called STING-associated vasculopathy with onset in infancy (SAVI)^86 (FIG. 12a). […] To test the feasibility of building a primary cell SAVI model, we next performed the STING1 gene targeting in human CD34+ HSPCs.
PSC culture and genome editing. Gene editing experiments were performed with three PSC lines: H9 embryonic stem cells (ESC) (WiCell) and the previously described 1205-4 and 1208-2 iPS cell lines^106. PSCs were maintained in feeder free conditions on Matrigel (corning, cat: 354277) coated plates in mTeSR1 medium ([…] technologies, cat: 85850). For gene editing, 24 h prior to nucleofection PSCs were pretreated with 10 μM of Y27632 (Cayman Chemical, cat: 10005583). […] PSCs were dissociated into single cells using Accutase (Innovative Cell Technologies, cat: AT104). […] Resuspended cells were added to one well of a 16-well Nucleocuvette Strip (Lonza) and nucleofection was performed in the 4D nucleofector (Lonza) using the program, CA137. […] Gene targeting efficiency was analyzed at 4-6 days post-editing.
as §1

HBA1 locus in PSCs = experiment: RNP/AAV6 gene targeting / gene replacement at HBA1 locus in PSCs; type: cell-based, human; conditions: 0.5 μM
Method: Gene targeting efficiency was measured by droplet digital PCR (ddPCR) and flow cytometry (for GFP) to measure the allelic targeting efficiency (FIG. 2B) and percentage of targeted cells (FIG. 2C) respectively. […] The treatment was carried out for 24 hours post gene targeting and the efficiency was calculated 1 week post gene targeting using ddPCR analysis.
First, we tested the treatment for editing the sickle cell disease (SCD) and cystic fibrosis (CF) mutations at HBB and CFTR loci respectively using the previously described Cas9 RNP and AAV6 donor reagents in WT PSC^71-73 (FIG. 19a-d).
(§3) PSC culture and genome editing. […] For each nucleofection, RNP complex was prepared with 5 μg of Cas9 protein and 2 μg of gRNA and incubated for 15 mins at room temperature. PSCs were dissociated into single cells using Accutase (Innovative Cell Technologies, cat: AT104). […] Resuspended cells were added to one well of a 16-well Nucleocuvette Strip (Lonza) and nucleofection was performed in the 4D nucleofector (Lonza) using the program, CA137. Nucleofected PSCs were plated in mTeSR1 medium supplemented with 10 μM of Y27632 at a density of 100,000 cells per well in 48-well plate, AAV6 vector and DNA-PKcs inhibitors were added to the medium at indicated concentrations. […] From the following day, PSCs were cultured in mTeSR1 without Y27632. Gene targeting efficiency was analyzed at 4-6 days post-editing.
ddPCR analysis of targeted integration. Gene targeting efficiency for the knock-in of multi-kb sequences was measured through digital droplet PCR (ddPCR) analysis. […] After PCR, the droplets were analyzed using the QX200 Droplet Digital PCR reader (Biorad) and Quantasoft software was used to determine the number of copies of the target and reference DNA in the droplets. The allelic gene targeting efficiency was calculated as the percentage of target DNA copies relative to that of the reference. […]
as §2

CCR5 locus in PSCs = experiment: RNP/AAV6 gene targeting at CCR5 locus, knock-in of two stop codons, PSCs; type: cell-based, human; conditions: low activity gRNAs sg1 and sg4; 0.5 μM
Method: as §3
ICE analysis for quantification of gene editing. ICE CRISPR analysis tool (Synthego) was used to determine the allelic distribution of WT, INDEL and HDR frequencies for gene targeting involving knock-in of short sequences and for calculating the frequency of WT and INDEL alleles for gene targeting involving knock-in of multi-kb sequences. […] Following PCR, the amplicons were detected on agarose gel and purified from the gel using GeneJet Gel Extraction Kit (Thermo Fisher Scientific, cat: K0692). […]

[1] = test system: LT-HSC and MPP populations; experiment: Gene targeting at CCR5 locus in FACS sorted LT-HSC and MPP; type: cell-based, human; conditions: flow cytometry for GFP; 0.5 μM

Cc1cc2ncnn2cc1Nc1ncc2c(n1)n(C1CCOCC1)c(=O)n2C [AZD7648, 7-methyl-2-((7-methyl-[1,2,4]triazolo[l,5-a]pyridin-6-yl)amino)-9-(tetrahydro-2H-pyran-4-yl)-7,9-dihydro-8H-purin-8-one]
alleles with INDELs vs untreated (CFTR locus in HBECs; CF patient derived HBECs): much lower frequency of alleles with INDELs
improvement of frequency of gene targeted (GFP+) cells (CFTR locus in HBECs; exon 1 knock-in): around 2 fold
INDELs after gene targeting (STING1 locus in HSPCs): no INDELs
INDELs after gene targeting (CCR5 locus in HSPCs): INDEL-free HDR
increase in HDR (human primary cells): up to 50 fold
INDELs after gene targeting (STING1 locus in PSCs; active gRNA (sg3)): without INDELs; also recorded: no INDELs
INDELs after gene targeting (STING1 locus in PSCs; seemingly inactive gRNA (sg5), 0.5 μM): without indels; also recorded: no INDELs
effect on gene targeting vs untreated (HBA1 locus in PSCs): enhanced the gene targeting significantly
INDELs after gene targeting (CCR5 locus in PSCs): INDEL-free
improvement of frequency of gene targeted cells [1]: more than 2.5 fold
